The source of these data is US5506213A, “Adminstration of 2'-halo-2'-deoxy adenosine to treat inflammatory bowel disease” (priority 1994, dated 1996).

The test system of data set [1] is human fibroblast cell line GM01380. In words: In vitro cytotoxicity toward human fibroblast cell line (MTT reduction assay). The class given is cell-based. Particulars: 20 nM CdA, five days. The procedure:
FIG. 2 is a graph illustrating the dose-response cytotoxicity of 2-chlorodeoxyadenosine (CdA) towards normal human monocytes (open squares), the human fibroblast cell line, GM01380, which is from normal fetal lung (open diamonds) and normal human lymphocytes (closed diamonds), when cultured in vitro. Cells were cultured in vitro as described in Example 2 for five days in the presence of varying concentrations of CdA from 0 to 125 nanomolar (nM), after which time viable cells were determined. The percentage of viable cells remaining after treatment (ordinate) is plotted against the concentration of CdA utilized (abscissa), on a linear scale. The effect of the presence of deoxycytidine (dCyd, 100 μM) on CdA toxicity toward monocytes (closed squares) is also illustrated. […]
Toxicity towards the monocytes and fibroblasts was determined by a modification of the MTT reduction assay described in Mosmann (1983) J. Immunol. […]
Viable cell numbers were determined using a Dynatech microplate spectrophotometer, measuring absorbance at a wavelength of 570 nanometers (nm), using a reference wavelength of 630 nm. The assay could detect as few as 2000 unactivated monocytes, and the absorbance of MTT formazan at 570 nm was linear with respect to the number of monocytes over a range of about 2.5-20×10^3 cells.
Background: Tetrazolium assays rely on reduction of a dye to a coloured formazan, in cell work by metabolically active cells.

The test system of data set [2] is monocytes. In words: Monocyte phagocytosis of antibody-coated erythrocytes. The class given is cell-based, human. Particulars: three days. The procedure:
FIG. 6 is a graph that illustrates the effects of relatively low doses of CdA used to contact monocytes for a 72 hour time period. Monocyte release of interleukin-6 (IL-6; closed diamonds) and phagocytosis of antibody-coated red blood cells (RBC; closed squares) were examined, as was the viability of the cultured monocytes (open squares). Effects are expressed as a percentage of control values versus the CdA concentration in nanomoles (nM).
The effects of sub-lethal CdA concentrations on monocyte function in vitro was also studied. Cells were contacted and cultured with CdA (5-20 nM) for three days, after which phagocytosis and supernatant IL-6 activity were assayed.
Monocyte phagocytosis was assayed using autologous erythrocyte targets, sensitized with a subagglutinating titer of rabbit anti-human erythrocyte IgG (Cappel, Malvern, Pa.). Monocytes (2×10^5 cells/well) were exposed to sub-toxic concentrations of CdA in microwell plates for 72 hours. Complete medium was replaced with medium containing 10% fetal bovine serum, and a suspension of sensitized erythrocytes (0.25% packed cell volume) was added to the adherent monocyte layers. After incubation for 4 hours at 37 degrees C., the degree of phagocytosis was quantitated by the spectrophotometric method of Jungi (1985) J. Immunol. Meth., 82:141-153. […]

In the next data set the test system is interleukin-1β (IL-1β). In words: Plasma IL-1beta in a rheumatoid arthritis patient, ELISA. The class given is in vivo, human. Particulars: each last infusion day compared to pretreatment values; one patient; preliminary. The source says:
Preliminary studies have also measured the concentration of interleukin-1β (IL-1β) in cryopreserved plasma samples from one of the rheumatoid arthritis patients. IL-1β is a lymphokine released by antigen-stimulated macrophages that promotes the formation of interleukin-2 in antigen-activated cytotoxic T cells. IL-2 promotes mitosis in activated cytotoxic T cells.
This patient received CdA, as before, in four treatments over a time period of almost 100 days. Each treatment was by 5-day continuous infusion.
IL-1β concentrations were measured using a commercially available ELISA kit (Cistron).
For orientation: ELISA stands for enzyme-linked immunosorbent assay.

In another data set the test system is CEM, wild type. In words: Direct comparative cytotoxicity assay (Table II), CEM wild type. The class given is cell-based, human. Particulars: Homo sapiens, 120 h, read-out: ID50: concentration that produced 50 percent reduction in all numbers after five days. The source says:
(§1) The two compounds, CdA and CAFdA, were also compared for in vitro activity against another group of human cell lines in a direct comparative assay.
(§2) ^1 Concentration that produced 50 percent reduction in all numbers
(§3) ^2 CEM cells are T lymphoblasts; DHL9 cells are lymphoblasts.

For data set [3], the system named is CEM, Increased 5'-nucleoside. As to the kind of experiment: Direct comparative cytotoxicity assay (Table II), CEM increased 5'-nucleoside. Particulars: Homo sapiens, 120 h, read-out: ID50: concentration that produced 50 percent reduction in all numbers after five days. The class given is cell-based, human.
Text: as §1, §2, §3

Data set [4] relates to DHL9, Increased ribonucleotide reduction. As to the kind of experiment: Direct comparative cytotoxicity assay (Table II), DHL9 increased ribonucleotide reduction. Type of data set: cell-based, human. Particulars: Homo sapiens, 120 h, read-out: ID50: concentration that produced 50 percent reduction in all numbers after five days.
Text: as §1, §2, §3

Data set [5] deals with monocytes. As to the kind of experiment: Direct comparative cytotoxicity assay (Table II), monocytes. Type of data set: cell-based, human. Particulars: Homo sapiens, Monocyte, 120 h, read-out: ID50: concentration that produced 50 percent reduction in all numbers after five days.
Text: as §1, §2

Data set [6] deals with delayed-type hypersensitivity (DTH) reaction. As to the kind of experiment: Delayed-type hypersensitivity to ovalbumin in guinea pigs, different dosages of CdA. Type of data set: in vivo, guinea pig. Particulars: for swelling compared to control saline treated animals: 24 and 48 hours post-challenge, p<0.01. As to the method:
Delayed-type hypersensitivity (DTH) is a cell-mediated immune response that typically takes longer than 12 hours to develop. In the guinea pig, a DTH reaction to an antigen can be established by first immunizing the animal with the antigen in an adjuvant such as Freund's complete adjuvant. Subsequent intradermal injection of the antigen causes no change for at least 10 hours, after which there is a gradual increase in erythema and swelling in response to antigen injection. This response peaks about at about 24 hours after challenge, then gradually subsides.
In another study, the effects of different dosages of CdA on the DTH reaction were examined. Guinea pigs sensitized to ovalbumin were treated with saline (control), dexamethasone (5 mg/kg), and CdA at 1 mg/kg or 0.1 mg/kg. Three days after treatment, the animals were challenged with ovalbumin intradermally. The areas of the skin lesions were measured at 6, 24, and 48 hours after challenge.

The conditions of data set [7]: cited from earlier work.

As for `Nc1nc(Cl)nc2c1ncn2[C@H]1C[C@H](O)[C@@H](CO)O1` [CdA, 2-chloro-9,1'-beta-D-2'-deoxyribosyladenine], in data set [1], the “toxicity on the growth of fibroblast cells” value is listed as “no appreciable toxicity”. For the same compound, in the data set on monocytes [2] (5-20 nM CdA), the cell viability entry is “unchanged cell viability”. For the same compound, in the data set on monocytes [2] (10 and 20 nM CdA), the “phagocytosis of antibody-coated erythrocyte targets” value is on record as “markedly suppressed”. Also, in the data set with interleukin-1β (IL-1β), the “plasma IL-1β level” value is “significantly lower”. In addition, the IC50 in the data set with CEM, wild type was found to be 21 nM; in data set [3] it was 60 nM; in [4], 4000 nM; with monocytes [5], 22 nM. The “numerical values of the areas of swelling relative to dexamethasone” value in [6] (0.1 and 1.0 mg/kg CdA, substantially the same) is recorded as “slightly less than the value obtained with dexamethasone”. For the same compound, the “swelling compared to control saline treated animals” value in data set [6] (CdA 0.1 mg/kg) and in data set [6] (CdA 1 mg/kg) was “effective at inhibiting swelling” each time. The “plasma level at which dose-limiting bone marrow suppression usually occurred” value in data set [7] (humans, infusion) is given as “greater than 20 nM”. For the same compound, the concentration in data set [7] (infusion of 0.1-0.5 mg/kg/day, humans, read-out: plasma concentrations of the drug) was 10 to 50 nM. Besides, the tolerability entry in data set [7] (infusion, no nausea, vomiting or fever) is “well tolerated”.
